From patent US7304129B2 (Imperial Innovations Limited, priority 2000, dated 2007)
Where “and” joins values, the source holds several entries; their conditions need not be identical. Equal values may be shown once. Entries after “also recorded” stand apart in the source; their conditions may differ. No end group written: not given here.

Key:
[1] = tested on: rat cerebellar granule neurons cultured on monolayers of NIH 3T3 fibroblasts; assay: in vitro neurite outgrowth co-culture assay (axon regeneration); assay type: cell-based; conditions: for stimulation of neurite outgrowth (in words): agent included in coculture medium, 16 hour culture; for peptide concentration giving maximal effects in neurite outgrowth assay: rat cerebellar neurons on 3T3 monolayer, 16 hours
Method: An example of such an assay is a co-culture assay in which neurons are cultured on top of cellular monolayers for 16 hours, before being fixed and stained with a neuron-specific antibody. The mean length of the longest neurite per cell can then be determined by fluorescence microscopy using an appropriate image analysis programme. The neurons may be, for example, (in this case cerebellar granule cell neurons, hippocampal, dorsal root ganglion, olfactory, motor or dopaminergic neurons. The cellular monolayer is, for example NIH 3T3 fibroblasts.
Monolayers of NIH 3T3 fibroblasts were established by seeding 80,000 cells per well in Lab-Tek 8-chamber slides previously coated sequentially with poly-L-lysine and fibronectin and culturing them overnight in DMEM+10% FCS growth medium.
Cerebellum was dissected from post-natal day 2-4 rat pups and the meninges and extraneous tissue discarded. Cerebellum was chopped into small pieces and trypsinised for 10 minutes at 37° C. Trypsin was neutralised using growth medium and the cells pelletted at 1000×g for 7 minutes. Cerebellar neurons were then resuspended in SATO growth medium containing 2% FCS, counted, and plated on top of the fibroblast monolayer at a density of 1,500 neurons per well. After 16 hours, cocultures were fixed with 4% para-formaldehyde and stained with an anti-GAP43 neuron-specific antibody, which was a gift from Dr Graham Wilkin, Imperial College Department of Biochemistry, London, but any other neuron-specific marker can be used.
The mean neurite length of 150-200 neurons per well was determined using a fluorescent microscope and Zeiss KS300 imaging software.
Peptides A, A(d), B, C, D, E, and F were each incorporated in the SATO medium at a range of concentrations from 0 to 200 μg/ml. Nerve growth factor (NGF) and fibroblast growth factor (FGF2) were used as controls at the same range of concentrations.

NIH 3T3 cells [2] = assay: NIH 3T3 cell survival MTS assay in serum-free DMEM (Example 6); assay type: cell-based; conditions: for survival of NIH3T3 cells in serum-free conditions (in words): FGF2 only at low concentrations; for survival of NIH3T3 cells: low-density cultures
Method: NIH 3T3 cells are plated in 96-well plates at a density of 5,500 cells/well in 100 μl DMEM containing 0.5% FCS. After 24 hours, this medium is aspirated from the wells and replaced with 100 μl serum-free DMEM alone, or supplemented with 0.5% FCS (positive control), or a single potential survival factor, with four identical wells set up for each condition. The cells are left for up to seven days at 37 degrees and 8% CO2 before the cell survival is determined using an MTS assay. In this assay 20 μl of MTS substrate is added to each 100 μl well and the plate left in the incubator for up to four hours. Respiring cells produce a coloured reaction product that can be read using a spectrophotometer at 490 nm. […] The mean absorbance at 490 nm+/−SEM is determined for the four identically set up wells. Wells containing a known survival factor such as insulin will contain more living cells after three days than cells cultured in unsupplemented medium.

[3] = tested on: cerebellar neurones expressing a dominant-negative form of FGF receptors; assay: neurite outgrowth of cerebellar neurones from transgenic mice expressing dominant-negative FGF receptors; assay type: cell-based; conditions: neurons unable to signal through the FGF receptor; listed as Ac-DRVEPYSSTA-amide
NIH 3T3 fibroblasts = assay: survival of 3T3 fibroblasts in serum-free DMEM (MTS and morphologic method, Example 5a); assay type: cell-based; conditions: in the presence of FGF
Method: NIH 3T3 fibroblasts were plated in each well of a 96-well microtitre plate at a density of 7,000 cells per well in DMEM containing 3% FCS and left to attach overnight. The following day the growth medium was removed and replaced with 0.1 ml DMEM supplemented with FGF or Peptide A(d) or both, eight wells for each condition. The negative control was DMEM alone (maximal cell death) and the positive control was supplementation with 0.5% FCS (maximal cell survival).
Six days later (seven days from first plating the cells), the relative number of living cells in each well was assessed by adding the mitochondrial substrate MTS, [3-(4,5-dmethylthiazol-2-yl)-5-(3-carboxymethoxyphenyl)-2-(4-sulphophenyl)-2H-tetrazolium, inner salt), for four hours before reading the optical density on a microtitre plate reader at a wavelength of 490 nm. The optical density gives a measure of the number of respiring cells present in each well at the end of the assay period.
In addition to the biochemical assay, survival was assessed qualitatively using a morphologic method in which cells were plated in 8-chamber Lab Tek slides in DbEM alone (negative control), or DMEM supplemented with 0.5 ng/ml FGF2; 0.5% FCS (positive control), or 25-200 μg/ml Peptide A(d). After three days the cells were fixed with 4% paraformaldehyde, permeablised with methanol and stained with TRITC-conjugated falloidin to visualise the cell cytoskeleton.

L6 cell line = assay: survival of L6 cell line lacking FGF receptors; assay type: cell-based; conditions: FGF2 0.1, 1 and 10 ng/ml; Peptide A(d) 100 and 400 μg/ml
Method: FIG. 2d compares the effects of DMEM, FCS, FGF2 at 0.1, 1 and 10 ng/ml, insulin at 0.5 and 5 μg/ml, and Peptide A(d) at 100 and 400 μg/ml.

MAP kinase = assay: Western blot for tyrosine phosphorylated MAP kinase in NIH 3T3 cells; assay type: cell-based; conditions: 10 minutes
Method: A Western blot (FIG. 2f) was obtained as follows: one million NIH 3T3 cells were serum starved for 24 hours then challenged with the following agents: DMEM, 10% FCS, 0.1 ng/ml FGF2, 1 ng/ml FGF2, 10 ng/ml FGF2, 5 μg/ml insulin, 400 μg/ml peptide 52 for 10 minutes at 37 degrees Celsius before being lysed in sample buffer and band separated by PAGE. Proteins were transferred to PVDF membranes and probed with an antibody that recognises tyrosine phosphorylated MAP kinse (upper panel).

DRG neurons = assay type: cell-based, rat; conditions: 10 ng/ml, 10 days in SATO medium
Method: DRG neurons were taken from embryonic day 16 rates and cultured at a density of-10,000 cells/well of a 96-well plate-over 10 days in SATO medium, unsupplemented or supplemented with 10 ng/ml NGF, 10 ng/ml FGF2 or 800 ng/ml Peptide A(d). An OD of 100% reflects the baseline cell survival n the absence of any supplement in the medium.

NIH 3T3 cells [4] = assay: NIH 3T3 survival and morphology, TRITC-conjugated phalloidin staining; assay type: cell-based; conditions: three days
NIH3T3 cells = assay: cell survival/proliferation at two plating densities
Description: FGF2 is a mitogen for a range of cells, including NIH3T3 cells.

[5] = tested on: cells in S phase (bromodeoxyuridine incorporation into DNA); assay: bromodeoxyuridine incorporation (entry into S phase) mitogenicity assay; assay type: cell-based; conditions: six hours
Method: The mitogenicity of an agent can be determined by testing its ability to stimulate entry of cells into ‘S’ phase in readiness for cell division. This is done by standard methodology and involves incubating cells in the presence of a potential mitogen in DMEM supplemented with bromodeoxyuridine. After six hours the cells are fixed and stained with an antibody recognising bromodeoxyuridine. Cells in S phase can be distinguished by their incorporation of bromodeoxyuridine into DNA.

[6] = tested on: Oligodendrocyte progenitors (O4 positive); assay type: cell-based, rat; conditions: six days in culture, medium supplemented with insulin
Description: Oligodendrocyte progenitors (O4 positive) are purified from postnatal day 4 rat cerebral cortex. First a trypsinised preparation of cortical cells is dissociated to single cell suspension and pre-plated to remove unwanted adherent cells such as microglia and macrophages. Oligodendrocyte progenitors express the O4 antigen, and can be purified by panning on petri-dishes coated with anti O4 antibodies. Unbound cells are removed by gentle washing, then O4 positive cells are removed by triturating them off the plate with DMEM containing 1% FCS, through a flame-polished pasteur pipette. O4 positive cells are plated on polyornithine-coated glass coverslips at a density of 500,000 cells per well in minimal growth medium containing insulin or the peptide Ac-DRVEPYSSTA[lys]2[lys] i.e. [{Ac-DRVEPYSSTA}2-K]2-K-OH, Peptide A(d), for six days, before being fixed and stained with the anti O4 antibody. Viable O4 positive cells are counted for each condition

[7] = insulin 0.5 pg/ml, FGF2 0.1 ng/ml, Peptide A(d) 10 ng/ml

Row | Substance | stimulation of neurite outgrowth (in words) [1] | peptide concentration giving maximal effects in neurite outgrowth assay [1] | survival of NIH3T3 cells in serum-free conditions (in words) (NIH 3T3 cells [2]) | other results
1 | Ac-ARSEPYSSTA-amide (Ac-ARSEPYSSTA-NH2) | do not |  |  | 
2 | Ac-ARVEPYSSTA-amide (Ac-ARVEPYSSTA-NH2) | do not |  |  | 
3 | Ac-PYSSTA-NH2 | unable to stimulate neurite outgrowth |  |  | effect on NCAM-stimulated neurite outgrowth ([1]; NCAM-stimulated, low peptide concentrations): able to inhibit NCAM-stimulated neurite outgrowth
4 | Ac-SIDRVEPYSSTAQ-amide (Ac-SIDRVEPYSSTAQ-NH2) [synthetic 13 amino acid peptide derived from the first fibronectin type III domain of NCAM] | dose-dependent increase in neurite outgrowth |  |  | concentration at which neurite length equalled that stimulated by NCAM [1]: 100 µM
5 | Acetyl-DAVEPYSSTA-amide (Ac-DAVEPYSSTA-NH2) [Peptide F] | retain the full ability to stimulate neurite outgrowth |  |  | 
6 | Acetyl-DRSEPYSSTA-amide (Ac-DRSEPYSSTA-NH2) [Peptide E] | retain the full ability to stimulate neurite outgrowth | 50-100 μg/ml and 50-100 μM |  | 
7 | Acetyl-DRVE-amide (Ac-DRVE-NH2) [Peptide B] | could stimulate the response | 75 μg/ml and 150 μM | able to stimulate cell survival | 
8 | Acetyl-DRVEPYSSTA-amide (Ac-DRVEPYSSTA-NH2) [Peptide A] | full activity was retained | 100-200 μg/ml and 100-200 μM |  | effect on neurite outgrowth stimulated by FGF2 ([1]; peptide at low concentration (25 μM), listed as Ac-DRVEPYSSTA-amide): inhibits neurite outgrowth stimulated by FGF2; neurite extension in response to the peptide [3]: unable to extend neurites; also recorded: not able to extend neurites
9 | Acetyl-EGME-amide [Peptide C] | stimulates neurite outgrowth to the same extent as Ac-DRVE-amide | 38 μg/ml and 75 μM | able to stimulate cell survival | 
10 | Acetyl-EGMEGM-amide (Ac-EGMEGM-NH2) [Peptide D] | equally active | 100 µM |  | 
11 | FGF2: fibroblast growth factor (FGF2) | approximately doubles; also recorded: stimulates neurite outgrowth in this assay with a biphasic dose-response curve |  | stimulate dose-dependent survival | cells remaining compared with the peptide (NIH 3T3 fibroblasts): far fewer cells remaining; survival of NIH3T3 cells (NIH 3T3 cells [2]; FGF2 1 ng/ml): ineffective; survival of NIH3T3 cells (NIH 3T3 cells [2]; FGF2 10 ng/ml, three days): stimulates apoptosis; survival of L6 cell line (L6 cell line): unable to stimulate the survival; MAP kinase activation (MAP kinase; FGF2 0.1 ng/ml): did not; also recorded: do not; MAP kinase activation (MAP kinase; FGF2 1 or 10 ng/ml): resulted in MAP kinase activation; also recorded: stimulate MAP kinase activation; increase in DRG neuron survival over unsupplemented baseline (DRG neurons): 73%; cell survival / morphology (NIH 3T3 cells [4]; FGF2 1 and 10 ng/ml): reduced in number, and appear apoptotic; cell survival / morphology (NIH 3T3 cells [4]; [7]): stimulate cell survival; effect on cells plated at low density (NIH3T3 cells; 5,500 cells per well, 10 ng/ml FGF2): stimulates apoptosis; mitogenicity (entry into S phase) ([5]; FGF2 0.1 ng/ml): unable to stimulate entry into S phase; mitogenicity (entry into S phase) ([5]; FGF2 10 ng/ml): mitogenicity of 10 ng/ml FGF2 can be seen
12 | NGF: Nerve growth factor (NGF) | approximately doubles |  |  | increase in DRG neuron survival over unsupplemented baseline (DRG neurons): 121%
13 | [{Ac-ADTRSVSEYP}2-K]2-K-OH (also: branched lysine tetramer: four chains on [K]2-K core, core C-terminus free acid (-OH)) [Ac-ADTRSVSEYP [lys]2[lys], 'scrambled' version of Peptide A(d)] |  |  | ineffective | 
14 | [{Ac-ARSEPYSSTA}2-K]2-K-OH (also: branched lysine tetramer: four chains on [K]2-K core, core C-terminus free acid (-OH)) [Ac-ARSEPYSSTA [lys]2[lys], "mutated" multimeric peptide] |  |  | stimulated cell survival, though not as potently as the parent peptide | 
15 | insulin: known survival factor |  |  | stimulate dose-dependent survival | MAP kinase activation (MAP kinase; insulin 5 μg/ml): showed a small activation; also recorded: do not; cell survival / morphology (NIH 3T3 cells [4]; [7]): stimulate cell survival; cells originally plated that survive [6]: 25%; cell proliferation (NIH3T3 cells; 11,000 cells per well, FGF2 10 ng/ml): stimulates cell proliferation
16 | soluble NCAM: soluble NCAM (Neuronal Cell Adhesion Molecule) | approximately doubles |  |  | 
